Assays:
Format in all cases: cell-based
Escherichia coli = assay: Minimal inhibitory concentration (MIC), gradient plate test, bacteriostasis; settings: brain heart infusion agar, 24 hours at 37° C
Source text: (§1) Measuring the minimal inhibitory concentration (MIC) towards bacteria and fungi in the gradient plate test
(§2) The compounds of the formula (1) in suitable formulations (for example as solutions in dimethylsulphoxide) of certain concentrations are mixed with warm brain heart infusion agar (bacteria) and Mycophil-Agar (fungi). The liquid mixtures are poured over a solidified, wedge-shaped basic agar layer and likewise allowed to solidify.
(§3) The test organisms are then applied by means of a Pasteur pipette in lines at right angles to the gradient. After an incubation period of 24 hours at 37° C. (bacteria) and 72 hours at 30° C. (fungi) the length of the germs grown on the inoculation line is measured and expressed in parts per million of active substance.

Staphylococcus aureus [1] = assay: as above; settings: brain heart infusion agar, 24 hours at 37° C
Source text: as §1, §2, §3

Aspergillus niger [2] = assay: Minimal inhibitory concentration (MIC), gradient plate test, fungistasis; settings: Mycophil-Agar, 72 hours at 30° C
Source text: as §1, §2, §3

[3] = system: Trichophyton mentagrophytes; assay: as above; settings: Mycophil-Agar, 72 hours at 30° C
Source text: as §1, §2, §3

Staphylococcus aureus [4] = assay: Minimal inhibitory concentration (MIC), dilution test, bacteriostasis; settings: brain heart infusion broth, 48 hours at 37° C
Method: (§4) Measuring the minimal inhibitory concentration (MIC) against bacteria and fungi in the dilution test
(§5) The minimal inhibitory concentration (MIC) is measured by a test derived from standardized methods which makes available an approximation to absolute minimal inhibitory values of an active substance.
(§6) A solution of 0.4% and 0.12% strength each in dimethylsulphoxide is prepared with the active substances. 0.25 ml of each of these solutions is added to 9.75 ml of sterile brain heart infusion broth (bacteria) and beerwort solution (fungi) respectively. By continual dilution to 10 times the volume two series are obtained which are combined and thereby converted into the following continuous dilution series:
(§7) 100, 30, 10, 3, 1 . . . part per million of active substance.
(§8) The solutions are inoculated with the bacterium Staphylococcus aureus and with fungi Aspergillus niger and Rhizopus nigricans respectively. Then incubation is performed for 48 hours at 37° C. (bacteriostasis) with Staphylococcue aureus and for 72 hours at 30° C. (fungistasis)with the fungi.

Aspergillus niger [5] = assay: Minimal inhibitory concentration (MIC), dilution test, fungistasis; settings: beerwort solution, 72 hours at 30° C
Method: as §4, §5, §6, §7, §8

Rhizopus nigricans = assay: as above; settings: beerwort solution, 72 hours at 30° C
Method: as §4, §5, §6, §7, §8

Staphylococcus aureus [6] = assay: Activity of impregnated fabrics against bacteria (agar plate, inhibitory zone and growth)
Method: (§9) Samples of C. 100 g each of cotton creton are impregnated on a padder with a 1% solution of one of the compounds of the formula (1) in isopropanol at 20° C and then squeezed to a weight increase of 100%.
(§10) Samples of 100 g each of wool cheviot were treated in an identical manner.
(§11) After having been dried at 30° to 40° C. the fabrics contain 1% of active substance referred to their own weight.
To test the activity against bacteria round blanks of 10 mm diameter of the impregnated fabrics, one half of which untreated and the other after having been watered for 24 hours at 29° C., are placed on brain infusion agar plates previously inoculated with Staphylococcus aureus. The plates are then incubated for 24 hours at 37° C.
(§12) The evaluation extends, on one hand, to the inhibitory zones (IZ in mm) around the blanks and, on the other hand, on the growth (G in %) detected under a microscope underneath and/or on the fabric: […]

Aspergillus niger [7] = assay: Activity of impregnated fabrics against fungi (agar plate, inhibitory zone and growth)
Method: as §9, §10, §11
To test the activity against fungi round blanks of 25 mm diameter are placed on beerwort agar plates and then inoculated with Aspergillus niger, and the plates are then incubated for 72 hours at 30° C.
as §12

Staphylococcus aureus [8] = assay: Antibacterial properties of impregnated paper (agar plate, inhibitory zone and growth); settings: paper with 1% of active substance, 24 hours at 37° C
Source text: (§13) Crude paper, which consists of 90% of bleached sulphite cellulose and 10% of birch pulp, is impregnated in a sizing press with a 2.5% solution of the compound of the formula (11) in methanol+water 2:1 to a weight increase of 40%.
(§14) The dried paper contains 1% of active substance referred to its original weight.
To test its antibacterial properties round blanks of 10 mm diameter of the impregnated paper are placed on brain heart infusion agar plates previously inoculated with Staphylococcus aureus, and the plates are then incubated for 24 hours at 37° C.
(§15) The evaluation extends, on one hand, to the inhibitory zone (IZ in mm) around the paper blanks and, on the other hand, to the microscopically discernible growth (G in %) underneath and/or on the blanks: […]

Aspergillus niger [9] = assay: Fungicidal activity of impregnated paper (agar plate, inhibitory zone and growth); settings: paper with 1% of active substance, 72 hours at 30° C
Method: as §13, §14
For testing its fungicidal activity round blanks of 25 mm diameter are placed on Mycophil-Agar plates and inoculated with Aspergillus niger, and the plates are incubated for 72 hours at 30° C.
as §15

[10] = cotton with 1% of active substance, untreated
[11] = wool with 1% of active substance, untreated

Row | Compound | Minimal inhibitory concentration, bacteriostasis, Escherichia coli (Escherichia coli) | Minimal inhibitory concentration, bacteriostasis, Staphylococcus aureus (Staphylococcus aureus [1]) | Minimal inhibitory concentration, fungistasis, Aspergillus niger (Aspergillus niger [2]) | Minimal inhibitory concentration, fungistasis, Trichophyton mentagrophytes [3] | Inhibitory values in ppm in bacteriostasis, Staphylococcus aureus (MIC) (Staphylococcus aureus [4]) | Inhibitory values in ppm in fungistasis, Aspergillus niger (MIC) (Aspergillus niger [5]) | Inhibitory values in ppm in fungistasis, Rhizopus nigricans (MIC) (Rhizopus nigricans) | inhibitory zone (IZ) (Staphylococcus aureus [6]; [10]) | inhibitory zone (IZ) (Staphylococcus aureus [6]; cotton with 1% of active substance, watered 24 hours at 29° C) | inhibitory zone (IZ) (Staphylococcus aureus [6]; [11]) | inhibitory zone (IZ) (Staphylococcus aureus [6]; wool with 1% of active substance, watered 24 hours at 29° C) | inhibitory zone (IZ) (Aspergillus niger [7]; [10]) | inhibitory zone (IZ) (Aspergillus niger [7]; cotton with 1% of active substance, watered) | inhibitory zone (IZ) (Aspergillus niger [7]; [11]) | inhibitory zone (IZ) (Aspergillus niger [7]; wool with 1% of active substance, watered) | inhibitory zone (IZ) (Staphylococcus aureus [8]) | inhibitory zone (IZ) (Aspergillus niger [9])
1 | CCCCCCCCCCCC[N+](CCO)(CCO)Cc1ccccc1.[O-]c1cccc2cccnc12 [L] | 20 ppm | 3 ppm | 6 ppm | 6 ppm |  |  |  |  |  |  |  |  |  |  |  |  | 
2 | benzyl-bis-(2-hydroxyethyl)-dodecyl ammonium pentachlorophenolate |  |  |  |  | 10 ppm | 10 ppm | 10 ppm | 6 mm | 5 mm | 6 mm | 3 mm | 7 mm | 4 mm | 0 mm | 0 mm | 2.5 mm | 1 mm

Source: US4025556A, “Quaternary ammonium-hydroxyaryl compounds” (Ciba-Geigy AG, priority 1967, dated 1977)
